{"source": "patent US6492124B1", "about": "“Trance activated signal transduction pathways in osteoclasts” (The Rockefeller University, priority 1999, dated 2002)", "molecules": {"B1": {"name": "CSF-1: recombinant CSF-1 purchased from R&D Systems (protein, UniProt P09603 33-554, looked up)", "Macrophage colony-stimulating …": "EEVSEYCSHMIGSGHLQSLQRLIDSQMETSCQITFEFVDQEQLKDPVCYLKKAFLLVQDIMEDTMRFRDNTPNAIAIVQLQELSLRLKSCFTKDYEEHDKACVRTFYETPLQLLEKVKNVFNETKNLLDKDWNIFSKNCNNSFAECSSQDVVTKPDCNCLYPKAIPSSDPASVSPHQPLAPSMAPVAGLTWEDSEGTEGSSLLPGEQPLHTVDPGSAKQRPPRSTCQSFEPPETPVVKDSTIGGSPQPRPSVGAFNPGMEDILDSAMGTNWVPEEASGEASEIPVPQGTELSPSRPGGGSMQTEPARPSNFLSASSPLPASAKGQQPADVTGTALPRVGPVRPTGQDWNHTPQKTDHPSALLRDPPEPGSPRISSLRPQGLSNPSTLSAQPQLSRSHSSGSVLPLGELEGRRSTRDRRSPAEPEGGPASEGAARPLPRFNSVPLTDTGHERQSEGSFSPQLQESVFHLLVPSVILVLLAVGGLLFYRWRRRSHQEPQRADSPLEQPEGSPLTQDDRQVELPV"}, "B2": {"name": "IL-1α: recombinant IL-1 purchased from R&D Systems (protein, UniProt P01583 113-271, looked up)", "Interleukin-1 alpha": "SAPFSFLSNVKYNFMRIIKYEFILNDALNQSIIRANDQYLTAAALHNLDEAVKFDMGAYKSSKDDAKITVILRISKTQLYVTAQDEDQPVLLKEMPEIPKTITGSETNLLFFWETHGTKNYFTSVAHPNLFIATKQDYWVCLAGGPPSITDFQILENQA"}}, "type_in_all_cases": "cell-based, mouse", "key": {"PKB [1]": {"test_system": "PKB", "assay": "PKB activation in osteoclasts (phospho-PKB Western blot)", "conditions": "for TRANCE-induced PKB activation (phosphorylated form of PKB): osteoclasts pretreated 90 min with inhibitor 10 μM, then TRANCE 1 μg/ml", "experimental": "(§1) FIG. 1. […] (A) Mature bone marrow-derived osteoclasts were stimulated for the indicated times with recombinant hCD8-TRANCE (TRANCE; 1 μg/ml). Levels of phosphorylated forms of p44/p42 ERK (p44 ERK^P and p42 ERK^P), IκBα (IκB-α^P) and PKB (PKB^P) in whole cell extracts were determined using phospho-peptide-specific antibodies as indicated in the figure. […] (B) as in (A) except the use of mature bone marrow-derived dendritic cells instead of osteoclasts.\n(§2) FIG. 2. […] (A) Osteoclasts were serum starved and then pretreated for 90 min with LY294002 (10 μM), Herbimycin A (Herb. A; 10 μM), and PP1 (10 μM) inhibitors which are specific for PI3-kinase, PTKs, and Src-family kinases, respectively, were stimulated for indicated times with TRANCE (1 μg/ml). Levels of phosphorylated p44/p42 ERK, PKB, and IκB-α were determined as described in FIG. 1. Cells pretreated with vehicle (DMSO) were used as a negative control. (B) as in (A) except the use of mature bone marrow-derived dendritic cells.\n(§3) Primary cells and cell lines. […] In brief, bone marrow cells from tibiae and femur of 4-6 week old mice (C57BL/6, Jackson Laboratories) were cultured overnight in media (α-MEM, 10% FCS) in the presence of CSF-1 (5 ng/ml). […] For experiments described in this study, only adherent cells were used after extensive washing. […] After allowing them adhere for 2 hours to a tissue culture dish, contaminating floater cells were washed away and mature dendritic cells were obtained by overnight culture.\n(§4) Cell stimulation, cell transfection and in vitro assays. In vitro differentiated mature dendritic cells, macrophages and osteoclasts were washed to remove exogenous growth factors, cultured in media with low serum (0.5% FCS, 6 hours), then stimulated by adding various cytokines in the presence or absence of inhibitors for various times as indicated. After stimulation, the cells were washed in ice-cold PBS, and subjected to Western blot analysis or immunoprecipitation as described below.\nAll cells were harvested and lysed in extraction buffer (20 mM HEPES NaOH (pH 7.4), 150 mM NaCl, 1% Triton X-100, 10% glycerol, 10 mM EDTA, 1 mM Na3VO4, 1 mM phenylmethylsulfonylfluoride, 1 μg/ml leupeptin, and 0.1 U of aprotinin per ml) and cleared by centrifugation to obtain whole cell extracts. Protein assays were performed to ensure equal amounts of lysates were used in each sample."}, "NF-κB": {"test_system": "NF-κB", "assay": "NF-κB activation measured by IκB-α phosphorylation/degradation in osteoclasts and dendritic cells (Western blot)", "conditions": "osteoclasts and dendritic cells (FIGS. 2A and 2B), inhibitor 10 μM, TRANCE 1 μg/ml", "experimental": "as §1, §2, §3\nas §4, with “below. […]” for “below.”"}, "PKB [2]": {"test_system": "PKB", "assay": "PKB activation in dendritic cells (phospho-PKB Western blot)", "experimental": "FIG. 1. TRANCE activates p44/42 ERK, NF-κB and PKB in osteoclasts and dendritic cells. (A) Mature bone marrow-derived osteoclasts were stimulated for the indicated times with recombinant hCD8-TRANCE (TRANCE; 1 μg/ml). Levels of phosphorylated forms of p44/p42 ERK (p44 ERK^P and p42 ERK^P), IκBα (IκB-α^P) and PKB (PKB^P) in whole cell extracts were determined using phospho-peptide-specific antibodies as indicated in the figure. The membranes were stripped and incubated with antibodies against the p44/p42 ERK, IκB-α, and PKB as indicated to confirm that similar amounts of whole cell extracts were analyzed. Note the decrease of IκB-α after 10 min of treatment due to its degradation. (B) as in (A) except the use of mature bone marrow-derived dendritic cells instead of osteoclasts.\nFIG. 2. TRANCE-induced PKB activation in osteoclasts and dendritic cells is blocked by inhibitors of PI3-kinase, tyrosine kinases and Src family kinases. (A) Osteoclasts were serum starved and then pretreated for 90 min with LY294002 (10 μM), Herbimycin A (Herb. A; 10 μM), and PP1 (10 μM) inhibitors which are specific for PI3-kinase, PTKs, and Src-family kinases, respectively, were stimulated for indicated times with TRANCE (1 μg/ml). Levels of phosphorylated p44/p42 ERK, PKB, and IκB-α were determined as described in FIG. 1. Cells pretreated with vehicle (DMSO) were used as a negative control. (B) as in (A) except the use of mature bone marrow-derived dendritic cells.\nFIG. 6. Cytokine receptors that engage TRAF6 activate PKB through Src-family kinases. (A) Dendritic cells were treated with TNF (10 ng/ml), TRANCE (5 μg/ml), LPS (50 μg/ml), or IL-1α (20 ng/ml) for the indicated times (min). The activation of PKB was determined in whole cell extracts using a phospho-PKB-specific antibody as described in FIG. 1. (B) Dendritic cells were pretreated with vehicle (DMSO) or the Src-family kinase inhibitor, PP1 (10 μM) for 90 minutes followed by a 15 minute treatment with TRANCE (5 μg/ml), LPS (50 μg/ml), or IL-1α (20 ng/ml) or no treatment at all (−). The activation of PKB was determined as described in FIG. 1.\nPrimary cells and cell lines. Osteoclasts and macrophages were generated from bone marrow precursors as described (Wani, et al., Endocrinology, 140:[…], 1999). In brief, bone marrow cells from tibiae and femur of 4-6 week old mice (C57BL/6, Jackson Laboratories) were cultured overnight in media (α-MEM, 10% FCS) in the presence of CSF-1 (5 ng/ml). After 24 hours, non-adherent cells were harvested, washed, and further cultured in media with CSF-1 (50 ng/ml) plus TRANCE (10 ng/ml) to develop osteoclasts, or with CSF-1 alone to develop macrophages. Using these conditions, after 4 days of culture, greater than 95 percent of the adherent cells were osteoclasts or macrophages. For experiments described in this study, only adherent cells were used after extensive washing. Mature dendritic cells were generated from bone marrow precursors of 4-6 week old female C57BL/6 mice (C57BL/6, Jackson Laboratories) cultured in media (RPMI1640, 5% FBS) and GM-CSF (1:30 cultured supernatant from the J558 cell line, a gift from Dr. R. M. Steinman, The Rockefeller University) for 8 days as previously described (Inaba, et al., J. Exp. Med., 176:1693-1702, 1992). To generate osteoclasts and dendritic cells from c-Src deficient mice, spleen cells, which contain hematopoietic precursors due to extramedullary hematopoeisis, were substituted for bone marrow cells as previously described (Schwartzberg, et al., Genes Dev., 11:2835-2844, 1997). Mature spleen-derived dendritic cells were isolated from spleens treated with collagenase (40 U/ml; Boehinger Mannheim) and subjected to a Nycodenz centrifugation gradient (14.5%; Nycomed) to obtain low density cells. After allowing them adhere for 2 hours to a tissue culture dish, contaminating floater cells were washed away and mature dendritic cells were obtained by overnight culture.\nCell stimulation, cell transfection and in vitro assays. […]"}, "osteoclasts": {"test_system": "osteoclasts", "assay": "Osteoclast differentiation with TRANCE plus CSF-1 (TRAP solution assay)", "conditions": "TRANCE 100 ng/ml plus CSF-1 50 ng/ml; LY294002 200 nM and 800 nM", "experimental": "FIG. 3. c-Src is required for TRANCE-induced PKB activation and osteoclast survival. (A) c-Src was immunoprecipitated from osteoclasts, dendritic cells and macrophages stimulated with TRANCE (1 μg/ml) for the indicated times using an anti-c-Src-specific monoclonal antibody (327). PTK activity of the c-Src immunprecipitates were measured in vitro using SAM68, a PTK specific substrate. The degree of SAM68 phosphorylation was determined by Western blot analysis using an anti-phospho-tyrosine antibody (4G10) and densitometry. Note that c-Src kinase activity was not detectable in TRANCE-treated macrophages most likely due to low levels of c-Src in these cells (Lacey, et al., supra, 1998). (B) Osteoclasts derived from wild type and c-Src deficient mice were stimulated with TRANCE (5 μg/ml) for 10 min and the levels of phosphorylated PKB (PKB^P), total PKB, and total IκBα were determined as in FIG. 1. (C) Osteoclasts from wild-type (open bars) and c-Src deficient (solid bars) mice were washed and then cultured for an additional 24 hours in media alone (Medium) or in media with TRANCE (5 μg/ml) or CSF-1 (10 ng/ml). TRAP solution assays were performed and percent survival calculated. The experiment was performed in triplicate and the mean values with positive standard deviations are shown. […] Osteoclasts were detected by TRAP solution assays. […]"}, "mature osteoclasts": {"test_system": "mature osteoclasts", "assay": "Osteoclast survival assay (TRAP solution assay)", "conditions": "24 hours; TRANCE 5 μg/ml or CSF-1 10 ng/ml", "procedure": "TRAP solution assays were performed and percent survival calculated. The experiment was performed in triplicate and the mean values with positive standard deviations are shown. […] (E) Mature osteoclasts were washed extensively and then cultured for an additional 24 hr in media without (−) or with TRANCE (5 μg/ml; +) in the absence or presence of increasing doses (200 nM and 800 nM) of LY294002. TRAP solution assays were performed and percent survival was as described in Experimental Procedures. The experiment was performed in triplicate and the mean values with positive standard deviations are shown.\nOsteoclast survival assays. In vitro differentiated mature osteoclasts were washed 3 times in media then further cultured for 24 hr in media alone (control) or in media with TRANCE (5 μg/ml) or CSF-1 (10 ng/ml) in the presence or absence of LY294002 as indicated.\nSpecific cell survival (%)=(A405, 24 hr−A405. background)*100/(A405, 0 hr−A405, background)"}}, "data": [{"molecule": "CO[C@H]1[C@@H](OC)C[C@H](C)[C@@H](OC)C2=CC(=O)C=C(NC(=O)/C(C)=C/C=C\\[C@H](OC)[C@@H](OC(N)=O)/C(C)=C/[C@@H]1C)C2=O", "note": "[herbimycin A, reference compound]", "values": [{"measurement": "TRANCE-induced PKB activation (phosphorylated form of PKB)", "setting": "PKB [1]", "value": "blocked"}, {"measurement": "NF-κB activation as measured by IκB-α degradation", "setting": "NF-κB", "value": "neither LY294002, herbimycin A, nor PP1 significantly affected"}]}, {"molecule": "Cc1ccc(-c2nn(C(C)(C)C)c3ncnc(N)c23)cc1", "note": "[PP1, reference compound]", "values": [{"measurement": "TRANCE-induced PKB activation (phosphorylated form of PKB)", "setting": "PKB [1]", "value": "blocked"}, {"measurement": "NF-κB activation as measured by IκB-α degradation", "setting": "NF-κB", "value": "neither LY294002, herbimycin A, nor PP1 significantly affected"}, {"measurement": "TRANCE-induced PKB activation (phosphorylated form of PKB)", "setting": "PKB [2]; dendritic cells pretreated 90 min with inhibitor 10 μM, then TRANCE 1 μg/ml", "value": "inhibited"}, {"measurement": "activation of PKB by IL-1α", "setting": "PKB [2]; dendritic cells pretreated with PP1 10 μM 90 minutes, then IL-1α 20 ng/ml 15 minutes", "value": "inhibited"}, {"measurement": "activation of PKB by LPS", "setting": "PKB [2]; dendritic cells pretreated with PP1 10 μM 90 minutes, then LPS 50 μg/ml 15 minutes", "value": "inhibited"}]}, {"molecule": "COc1cccc(-c2cc(=O)c3ccccc3o2)c1N", "note": "[PD98059, reference compound]", "values": [{"measurement": "TRANCE-induced PKB activation", "setting": "PKB [1]; MEK inhibitor, cell type not stated (osteoclasts and dendritic cells studied), data not shown", "value": "failed to inhibit"}]}, {"molecule": "O=c1cc(N2CCOCC2)oc2c(-c3ccccc3)cccc12", "note": "[LY294002]", "values": [{"measurement": "osteoclast differentiation", "setting": "osteoclasts", "value": "did not inhibit"}]}, {"molecule": "B1", "values": [{"measurement": "cytokine-promoted survival in c-Src−/− osteoclasts compared to wild-type", "setting": "mature osteoclasts", "value": "not reduced"}]}, {"molecule": "B2", "values": [{"measurement": "PKB activation in dendritic cells stimulated with cytokine", "setting": "PKB [2]; TNF 10 ng/ml, TRANCE 5 μg/ml, LPS 50 μg/ml, IL-1α 20 ng/ml, CD40L data not shown", "value": "activated"}]}]}
